# Results from patent EP3426036B1, “CROP ENHANCEMENT” (priority 2016, dated 2017).
# Tested on: Soybean plants
# Experiment: Crop enhancement effect on soybean under drought conditions, then optimal conditions (Example 2b)
# Format: in vivo
# Conditions: for Dry weight of pods: 21 days drought then 25 days optimal conditions
# Method: Soybean plants were grown in pots. The plants were treated at R1 (33 days after sewing) or three days before R3 (40 days after sewing) with the compound of formula I at 0.75 l/ha. An untreated control plant was also included. After treatment, the plants were subjected to drought conditions for 21 days before being allowed to grow under optimal conditions for a further 25 days. Eight replicates of the control and each treatment were harvested for analysis of yield and chlorophyll content. […]
# [1] = 0.75 l/ha @ R1, 14 days after application
# [2] = 0.75 l/ha @ R1, 21 days after application
# [3] = 0.75 l/ha @ R1, 24 days after application
# [4] = 0.75 l/ha @ R1, 28 days after application
# [5] = 0.75 l/ha @ R1, 31 days after application
# [6] = 0.75 l/ha @ R1, 36 days after application
# [7] = 0.75 l/ha @ R1, 41 days after application
# [8] = 0.75 l/ha @ R1, 43 days after application
# [9] = 0.75 l/ha @ R1, -1 days after application
# [10] = 0.75 l/ha @ R3 - 3 days, 0 days after application
# [11] = 0.75 l/ha @ R3 - 3 days, 3 days after application
# [12] = 0.75 l/ha @ R3 - 3 days, 7 days after application
# [13] = 0.75 l/ha @ R3 - 3 days, 14 days after application
# [14] = 0.75 l/ha @ R3 - 3 days, 17 days after application
# [15] = 0.75 l/ha @ R3 - 3 days, 21 days after application
# [16] = 0.75 l/ha @ R3 - 3 days, 24 days after application
# [17] = 0.75 l/ha @ R3 - 3 days, 29 days after application
# [18] = 0.75 l/ha @ R3 - 3 days, 34 days after application
# [19] = 0.75 l/ha @ R3 - 3 days, 36 days after application
# [20] = 0.75 l/ha @ R3 - 3 days, -3 days after application
# [21] = 0.75 l/ha @ R3 - 3 days, -7 days after application
structure (smiles),measurement,setting,value
"Cn1cc(C(=O)Nc2cccc3c2C2CCC3C2=C(Cl)Cl)c(C(F)F)n1 (stereo not drawn) [Compound I, benzovindiflupyr]",Digital biomass (increase/decrease (%) compared to negative control treatment),"0.75 l/ha @ R1, 10 days after application",1.9%
same,Average plant colour (increase/decrease (%) compared to negative control treatment),[1],-0.6%
same,Digital biomass (increase/decrease (%) compared to negative control treatment),[1],2.4%
same,Average plant colour (increase/decrease (%) compared to negative control treatment),[2],-0.3%
same,Digital biomass (increase/decrease (%) compared to negative control treatment),[2],-1.5%
same,Dry weight of pods,0.75 l/ha @ R1,106.3 % of control
same,Average plant colour (increase/decrease (%) compared to negative control treatment),[3],-0.3%
same,Digital biomass (increase/decrease (%) compared to negative control treatment),[3],-1.1%
same,Average plant colour (increase/decrease (%) compared to negative control treatment),[4],-1.6%
same,Digital biomass (increase/decrease (%) compared to negative control treatment),[4],1.2%
same,Average plant colour (increase/decrease (%) compared to negative control treatment),[5],-3.0%
same,Digital biomass (increase/decrease (%) compared to negative control treatment),[5],-3.7%
same,Average plant colour (increase/decrease (%) compared to negative control treatment),[6],-0.5%
same,Digital biomass (increase/decrease (%) compared to negative control treatment),[6],-6.3%
same,Average plant colour (increase/decrease (%) compared to negative control treatment),[7],-1.4%
same,Digital biomass (increase/decrease (%) compared to negative control treatment),[7],-9.2%
same,Average plant colour (increase/decrease (%) compared to negative control treatment),[8],-2.0%
same,Digital biomass (increase/decrease (%) compared to negative control treatment),[8],-6.9%
same,Average plant colour (increase/decrease (%) compared to negative control treatment),[9],0.3%
same,Digital biomass (increase/decrease (%) compared to negative control treatment),[9],1.5%
same,Average plant colour (increase/decrease (%) compared to negative control treatment),[10],0.4%
same,Digital biomass (increase/decrease (%) compared to negative control treatment),[10],3.6%
same,Average plant colour (increase/decrease (%) compared to negative control treatment),[11],1.3%
same,Digital biomass (increase/decrease (%) compared to negative control treatment),[11],4.3%
same,Average plant colour (increase/decrease (%) compared to negative control treatment),[12],0.4%
same,Digital biomass (increase/decrease (%) compared to negative control treatment),[12],2.7%
same,Average plant colour (increase/decrease (%) compared to negative control treatment),[13],-0.2%
same,Digital biomass (increase/decrease (%) compared to negative control treatment),[13],1.5%
same,Average plant colour (increase/decrease (%) compared to negative control treatment),[14],1.4%
same,Digital biomass (increase/decrease (%) compared to negative control treatment),[14],4.4%
same,Average plant colour (increase/decrease (%) compared to negative control treatment),[15],0.2%
same,Digital biomass (increase/decrease (%) compared to negative control treatment),[15],4.4%
same,Dry weight of pods,0.75 l/ha @ R3 - 3 days,105.8 % of control
same,Average plant colour (increase/decrease (%) compared to negative control treatment),[16],1.3%
same,Digital biomass (increase/decrease (%) compared to negative control treatment),[16],-2.4%
same,Average plant colour (increase/decrease (%) compared to negative control treatment),[17],-0.5%
same,Digital biomass (increase/decrease (%) compared to negative control treatment),[17],-0.9%
same,Average plant colour (increase/decrease (%) compared to negative control treatment),[18],-2.3%
same,Digital biomass (increase/decrease (%) compared to negative control treatment),[18],-3.3%
same,Average plant colour (increase/decrease (%) compared to negative control treatment),[19],-3.9%
same,Digital biomass (increase/decrease (%) compared to negative control treatment),[19],1.6%
same,Average plant colour (increase/decrease (%) compared to negative control treatment),[20],0.4%
same,Digital biomass (increase/decrease (%) compared to negative control treatment),[20],2.2%
same,Average plant colour (increase/decrease (%) compared to negative control treatment),[21],0.1%
same,Digital biomass (increase/decrease (%) compared to negative control treatment),[21],-1.2%
